According to patent US8642622B2, “Piperidinyl compound as a modulator of chemokine receptor activity” (Bristol-Myers Squibb Company, priority 2010, dated 2014):

Columns and labels:
hERG potassium channel = target: T1, hERG potassium channel (Homo sapiens, UniProt Q12809); test: hERG patch clamp assay; assay type: cell-based; conditions: HEK-293 cells stably expressing hERG, pH 7.4, HEK-293, protein-free buffer, read-out: hERG channel, % inh
T1 construct: expressed in transfected cells
Experimental: Whole-cell patch-clamp was used to directly measure hERG tail currents in HEK-293 cells stably expressing the cloned hERG potassium channel α subunit. Effects of compounds were calculated by measuring inhibition of peak tail current. Experiments were carried out using an aqueous buffer with pH 7.4 at room temperature. There was no protein in the assay buffer. The test concentrations reported are nominal free drug levels. Data is reported as percent inhibition at a fixed concentration.

Protein binding, human = assay type: in vitro ADME
Protein binding, rabbit = assay type: in vitro ADME
[1] = target: T2, human cardiac L-type Ca channel (α1C) and its β subunit (Homo sapiens, UniProt Q13936); test: L-type calcium channel whole-cell patch-clamp assay; assay type: cell-based; conditions: @ 30 μM, HEK-293, protein-free buffer
T2 construct: expressed in transfected cells
Experimental: In addition to the potential for interaction with the L-type calcium channel, whole-cell patch-clamp was used to directly measure inward calcium currents in HEK-293 cells stably expressing the cloned human cardiac L-type Ca channel (α1C) and its β subunit. Effects of compounds were calculated by measuring inhibition of peak current. Experiments were carried out using an aqueous buffer at pH 7.4 and at room temperature. There is no protein in the buffer and drug concentrations reported are nominal free drug levels. Data is reported as percent inhibition at a fixed concentration.

[2] = Electrocardiography in anesthetized rabbits (rabbit in vivo EP effect)
Experimental: A dose-response study of test compound was conducted in anesthetized rabbits to assess the cardiac electrophysiologic profile established in the cellular ion channel assays.
Experiments were performed in propofol-fentanyl anesthetized closed-chest male rabbits. A body surface electrocardiogram (ECG) and an intra-cardiac His-bundle electrogram were continuously monitored and recorded during the studies, using a PoNeMah system and a Prucka electrophysiological recording system, respectively. Test compound was prepared on the day of study in a vehicle of PEG400:ethanol:water (1:1:1) at a dosing concentration of 30 mg/mL. Test compound (n=3) or vehicle (n=3) was given intravenously over 5 minutes via an infusion pump at incremental doses of 3, 10 and 30 mg/kg. The interval between doses was 10 minutes, allowing for a 5-minute test agent infusion and a 5-minute rest period. Blood was sampled at baseline (pre-drug infusion) and immediately at the end of each infusion. For the 30 mg/kg dose, additional blood samples were taken at 10, 20 and 30 minutes after the end of infusion.
PR interval, QRS duration and QT interval were averaged from a 1 minute ECG recording period at time of blood sampling. QT interval was corrected for heart rate effects using both Fridericia (QTcf) and Van der Water (QTcv) formulae. AH and HV intervals, representing A-V node conduction and His-Purkinje conduction, respectively, were assessed by manual measurements from the His-bundle electrogram. Data were expressed as percent change from pre-drug baseline (mean±SEM) for PR, QRS, AH and HV intervals as well as delta change from the pre-drug infusion baseline (mean±SEM) for QTc intervals. Changes of 10% in PR, QRS, and AH intervals, and 20% in HV interval, as well as >10 ms in QTc interval are considered significant based on experience with the model.

[3] = target: T3, human cardiac sodium channel, SCNSA (Homo sapiens, UniProt Q14524); test: Sodium channel whole-cell patch-clamp assay; assay type: cell-based; conditions: HEK293, HEK-293, protein-free buffer, read-out: Na channel, % inh
T3 construct: expressed in transfected cells; host or cells: HEK-293
Experimental: Whole-cell patch-clamp was used to directly measure inward sodium currents in HEK-293 cells expressing the human cardiac sodium channel, SCNSA. After reach steady-state effect in the presence of drug, rate-dependence was assessed by stimulation at frequencies of 1 Hz and 4 Hz. Experiments were carried out using an aqueous buffer at pH 7.4 and at room temperature. There is no protein in the buffer and drug concentrations reported are nominal free drug levels. Test article was evaluated up to 10 μM (protein-free buffer). […] Data is reported as percent inhibition at a fixed concentration.

[4] = Single-dose pharmacokinetics in dogs; assay type: in vivo; conditions: dog
Experimental: Serial blood samples were collected for all studies at various time points post dose (0.17 (or 0.25 for oral), 0.5, 0.75, 1, 2, 4, 6, 8 and 24 h, for example). Plasma samples were analyzed by LC-MS/MS.

[5] = Single-dose pharmacokinetics in rats; assay type: in vivo; conditions: male, Sprague-Dawley, rat, plasma; for bioavailability: po
Experimental: Serial blood samples were collected for all studies from the jugular vein at various time points post dose (0.17 (or 0.25 for oral), 0.5, 0.75, 1, 2, 4, 6, 8 and 24 h, for example). Plasma samples were analyzed by LC-MS/MS.
Additional studies evaluating suspensions of crystalline drug substance in aqueous medium were performed as described above.

T1 sequence (Q12809 whole entry): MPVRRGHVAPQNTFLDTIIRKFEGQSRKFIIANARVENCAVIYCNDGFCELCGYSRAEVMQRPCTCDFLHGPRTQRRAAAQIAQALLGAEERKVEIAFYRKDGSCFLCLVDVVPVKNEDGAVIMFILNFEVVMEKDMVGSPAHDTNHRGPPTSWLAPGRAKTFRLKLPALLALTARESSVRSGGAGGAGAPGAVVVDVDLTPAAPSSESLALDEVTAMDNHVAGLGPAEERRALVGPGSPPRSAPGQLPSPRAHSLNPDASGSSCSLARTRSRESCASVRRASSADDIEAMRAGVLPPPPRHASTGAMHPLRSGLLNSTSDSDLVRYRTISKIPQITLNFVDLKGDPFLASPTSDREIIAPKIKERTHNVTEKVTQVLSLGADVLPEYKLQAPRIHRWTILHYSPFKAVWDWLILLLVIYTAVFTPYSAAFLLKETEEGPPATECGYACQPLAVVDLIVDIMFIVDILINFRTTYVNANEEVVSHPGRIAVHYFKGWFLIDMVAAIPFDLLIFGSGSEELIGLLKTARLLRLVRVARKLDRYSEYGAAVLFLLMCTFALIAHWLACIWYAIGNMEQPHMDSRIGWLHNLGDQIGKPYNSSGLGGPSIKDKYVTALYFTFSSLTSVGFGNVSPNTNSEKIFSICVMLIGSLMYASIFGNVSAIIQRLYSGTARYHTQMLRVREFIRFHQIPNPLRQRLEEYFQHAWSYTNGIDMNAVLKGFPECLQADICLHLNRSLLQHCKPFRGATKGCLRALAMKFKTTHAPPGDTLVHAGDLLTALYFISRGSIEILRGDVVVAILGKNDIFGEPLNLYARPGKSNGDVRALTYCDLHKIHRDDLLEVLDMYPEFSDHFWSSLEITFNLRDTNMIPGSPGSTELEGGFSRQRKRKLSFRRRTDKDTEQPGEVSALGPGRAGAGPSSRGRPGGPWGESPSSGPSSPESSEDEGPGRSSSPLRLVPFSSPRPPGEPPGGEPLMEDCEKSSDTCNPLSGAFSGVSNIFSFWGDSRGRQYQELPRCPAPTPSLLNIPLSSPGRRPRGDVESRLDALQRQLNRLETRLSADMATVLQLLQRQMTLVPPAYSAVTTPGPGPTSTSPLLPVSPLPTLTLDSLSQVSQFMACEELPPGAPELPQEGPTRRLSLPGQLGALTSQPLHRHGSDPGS
T3 sequence (Q14524 whole entry): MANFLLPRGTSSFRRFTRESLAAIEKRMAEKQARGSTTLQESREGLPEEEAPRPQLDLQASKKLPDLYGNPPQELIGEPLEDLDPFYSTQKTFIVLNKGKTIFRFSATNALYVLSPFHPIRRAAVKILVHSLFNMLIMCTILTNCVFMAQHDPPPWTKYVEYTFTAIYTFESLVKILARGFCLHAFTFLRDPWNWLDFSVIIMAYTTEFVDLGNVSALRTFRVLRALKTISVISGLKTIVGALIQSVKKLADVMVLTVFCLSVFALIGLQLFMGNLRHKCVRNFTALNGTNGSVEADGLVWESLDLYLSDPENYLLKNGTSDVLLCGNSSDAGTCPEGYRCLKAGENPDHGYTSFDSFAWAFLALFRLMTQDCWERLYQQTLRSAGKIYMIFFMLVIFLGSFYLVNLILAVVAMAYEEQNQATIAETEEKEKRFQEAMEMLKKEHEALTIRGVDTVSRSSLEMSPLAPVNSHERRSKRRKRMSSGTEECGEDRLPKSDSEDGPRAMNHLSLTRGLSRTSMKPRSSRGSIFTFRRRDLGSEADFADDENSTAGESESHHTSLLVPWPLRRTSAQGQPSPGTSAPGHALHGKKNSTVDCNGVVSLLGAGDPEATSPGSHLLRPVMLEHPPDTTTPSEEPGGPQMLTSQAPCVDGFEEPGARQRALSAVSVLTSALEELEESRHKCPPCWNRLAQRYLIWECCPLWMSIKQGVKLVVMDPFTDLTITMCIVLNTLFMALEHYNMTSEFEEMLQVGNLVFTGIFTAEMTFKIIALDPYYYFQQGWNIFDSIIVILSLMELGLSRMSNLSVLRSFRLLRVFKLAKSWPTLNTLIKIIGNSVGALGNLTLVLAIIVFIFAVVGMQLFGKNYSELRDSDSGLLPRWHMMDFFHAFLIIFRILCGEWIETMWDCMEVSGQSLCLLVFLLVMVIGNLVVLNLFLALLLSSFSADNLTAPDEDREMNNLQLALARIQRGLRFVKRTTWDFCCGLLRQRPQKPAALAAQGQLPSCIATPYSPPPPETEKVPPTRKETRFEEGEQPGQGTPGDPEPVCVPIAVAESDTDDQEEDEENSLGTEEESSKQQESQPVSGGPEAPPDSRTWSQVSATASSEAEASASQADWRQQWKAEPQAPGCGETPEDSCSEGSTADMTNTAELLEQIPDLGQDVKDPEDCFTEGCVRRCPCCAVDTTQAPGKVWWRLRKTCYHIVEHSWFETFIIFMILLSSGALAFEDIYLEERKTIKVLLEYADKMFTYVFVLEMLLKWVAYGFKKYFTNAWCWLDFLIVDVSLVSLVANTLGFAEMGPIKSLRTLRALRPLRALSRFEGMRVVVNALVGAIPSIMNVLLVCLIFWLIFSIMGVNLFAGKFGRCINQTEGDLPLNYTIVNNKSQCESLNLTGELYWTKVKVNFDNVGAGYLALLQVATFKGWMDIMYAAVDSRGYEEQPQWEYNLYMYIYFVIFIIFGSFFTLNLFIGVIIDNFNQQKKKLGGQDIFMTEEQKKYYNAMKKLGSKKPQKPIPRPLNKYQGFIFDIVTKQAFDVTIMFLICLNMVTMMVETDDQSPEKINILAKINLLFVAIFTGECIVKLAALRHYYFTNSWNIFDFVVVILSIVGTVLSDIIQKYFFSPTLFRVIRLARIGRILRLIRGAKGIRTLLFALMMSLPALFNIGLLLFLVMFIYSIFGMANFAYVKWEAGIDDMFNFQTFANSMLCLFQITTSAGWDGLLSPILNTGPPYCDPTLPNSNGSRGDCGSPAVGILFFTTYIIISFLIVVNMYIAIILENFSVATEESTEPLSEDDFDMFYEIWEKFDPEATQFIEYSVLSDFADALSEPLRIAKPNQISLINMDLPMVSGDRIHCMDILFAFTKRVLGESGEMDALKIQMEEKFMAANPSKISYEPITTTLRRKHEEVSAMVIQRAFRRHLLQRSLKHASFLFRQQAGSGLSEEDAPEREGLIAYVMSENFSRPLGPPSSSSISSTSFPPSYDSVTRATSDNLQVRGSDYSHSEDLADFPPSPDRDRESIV

CC(C)[C@@H](NC(=O)[C@@H]1CCC(F)(F)C1)C(=O)N1CC[C@](O)(c2ccc(Cl)cc2)[C@@](C)(O)C1 [Compound I, (R)—N—((R)-1-((3S,4S)-4-(4-chlorophenyl)-3,4-dihydroxy-3-methylpiperidin-1-yl)-3-methyl-1-oxobutan-2-yl)-3,3-difluorocyclopentanecarboxamide]
inhibition at 30 µM (hERG potassium channel): 22% | fraction unbound (Protein binding, human): 0.32 | fraction unbound (Protein binding, rabbit): 0.46 | Ca channel, % inh [1]: 29% @ 30 μM | Cmax: Free drug (at NOEL dose) ([2]; at NOEL dose, free drug): 52 µM | Cmax: Free drug (at QT effect dose) ([2]; at QT effect dose, free drug): 52 µM | NOEL dose ([2]; i.v. infusion): 30 mg/kg | QT effect Dose ([2]; i.v. infusion 3, 10, 30 mg/kg): > 30 mg/kg | QTcf, delta ([2]; i.v. infusion, change from pre-drug baseline): No effect | Cmax ([2]; male, blood, iv, at QT effect dose, total drug): 96 µM | inhibition at 10 µM [3]: 21% | decrease of in vivo clearance (CL) relative to the compared compounds [4]: 8-13 fold | clearance ([4]; male, beagle, plasma, intravenous): 0.6 mL/min/kg | bioavailability ([4]; male, beagle, plasma, oral solution, read-out: dog oral bioavailability when dosed as solution): 82% | clearance ([5]; intravenous): 26 mL/min/kg | bioavailability ([5]; crystalline suspension in aqueous medium, read-out: Relative bioavailability when dosed as a crystalline suspension): 84% | bioavailability ([5]; oral solution, read-out: Rat oral bioavailability when dosed as solution): 43%
